Laboratory results published in the supplement of paper PMC8967900.

System: 380
Test: selective drug sensitivity score (sDSS, relative to normal bone marrow) (sDSS (score)); higher = more potent and effective on the cell line relative to normal bone marrow cells
Settings: 72 h
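Note: ALL cell lines in 384-well plates, five doses spanning 10,000-fold, each plate scaled between vehicle and 100 µmol/L benzalkonium chloride controls, sDSS an adapted area-under-curve metric.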

Point of comparison: Cc1cc(Nc2ncc(Cl)c(Nc3ccccc3S(=O)(=O)C(C)C)n2)c(OC(C)C)cc1C1CCNCC1 [Ceritinib] (top concentration 2500 nM), “selective drug sensitivity score” value 0.36. Against it:
- Cc1nc(Nc2ncc(C(=O)Nc3c(C)cccc3Cl)s2)cc(N2CCN(CCO)CC2)n1 [Dasatinib] (top concentration 1000 nM) — lower, -2.8
- N[C@@H]1CCCN(c2c(/C=C3\SC(=O)NC3=O)cccc2-c2ccccc2)C1 [AZD1208] (top concentration 10000 nM) — higher, 14.8
- CC(C)C[C@H](NC(=O)CNC(=O)c1cc(Cl)ccc1Cl)B(O)O [Ixazomib] (top concentration 1000 nM) — higher, 5.56
- C=CC(=O)N1CCC[C@@H](n2nc(-c3ccc(Oc4ccccc4)cc3)c3c(N)ncnc32)C1 [Ibrutinib] (top concentration 1000 nM) — higher, 0.9
- Cn1cnc2c(F)c(Nc3ccc(Br)cc3F)c(C(=O)NOCCO)cc21 [Binimetinib] (top concentration 1000 nM) — higher, 1.58
- COc1cc(Nc2ncc(F)c(Nc3ccc4c(n3)N(COP(=O)(O)O)C(=O)C(C)(C)O4)n2)cc(OC)c1OC [Fostamatinib] (top concentration 2500 nM) — lower, -2.84
- COc1cc2c(Oc3ccc(NC(=O)C4(C(=O)Nc5ccc(F)cc5)CC4)cc3F)ccnc2cc1OCCCN1CCOCC1 [Foretinib] (top concentration 1000 nM) — lower, -0.56
- Sc1ncnc2nc[nH]c12 [Mercaptopurine] (top concentration 10000 nM) — higher, 7.4
- COCCNCc1ccc(-c2cc3nccc(Oc4ccc(NC(=S)NC(=O)Cc5ccc(F)cc5)cc4F)c3s2)nc1 [Glesatinib] (top concentration 2500 nM) — lower, -1.96
- Cn1nccc1Nc1nccc(-c2ccn([C@H](CO)c3ccc(Cl)c(F)c3)c(=O)c2)n1 [Ravoxertinib] (top concentration 10000 nM) — higher, 4.9
- CC1=NN(c2ccc(C(=O)O)cc2)C(=O)C1=Cc1ccc(-c2cc(C)c(C)cc2[N+](=O)[O-])o1 [C646] (top concentration 25000 nM) — lower, -0.86
- CC(C)c1cc(C(=O)N2Cc3ccc(CN4CCN(C)CC4)cc3C2)c(O)cc1O [Onalespib] (top concentration 2500 nM) — higher, 6.52
- CCN1C(=O)CNc2ncc(-c3ccc(-c4nc[nH]n4)nc3C)nc21 [CC-115] (top concentration 10000 nM) — higher, 10.6
- COc1cc(N2CCC(N3CCN(C)CC3)CC2)ccc1Nc1ncc(Cl)c(Nc2ccccc2P(C)(C)=O)n1 [Brigatinib] (top concentration 1000 nM) — lower, -3.34
- CN1CCN(c2nc(C3=C(c4c[nH]c5ccccc45)C(=O)NC3=O)c3ccccc3n2)CC1 [Sotrastaurin] (top concentration 10000 nM) — higher, 4.5
- CCN(CC)Cc1ccc2cc(COC(=O)Nc3ccc(C(=O)NO)cc3)ccc2c1 [Givinostat] (top concentration 1000 nM) — higher, 6.9
- CNC(=O)c1cc(Oc2ccc(NC(=O)Nc3ccc(Cl)c(C(F)(F)F)c3)cc2)ccn1 [Sorafenib] (top concentration 1000 nM) — lower, 0
- COc1ccc(S(=O)(=O)Nc2cccnc2Nc2ccc(O)cc2)cc1 [ABT-751] (top concentration 10000 nM) — higher, 8.72

System: ALL-PO
Test: as above
Settings: 72 h

Point of comparison: C=CC(=O)N1CCC[C@@H](n2nc(-c3ccc(Oc4ccccc4)cc3)c3c(N)ncnc32)C1 [Ibrutinib] (top concentration 1000 nM), “selective drug sensitivity score” value 1.8. Against it:
- Cc1cc(Nc2ncc(Cl)c(Nc3ccccc3S(=O)(=O)C(C)C)n2)c(OC(C)C)cc1C1CCNCC1 [Ceritinib] (top concentration 2500 nM) — lower, -0.94
- Cc1nc(Nc2ncc(C(=O)Nc3c(C)cccc3Cl)s2)cc(N2CCN(CCO)CC2)n1 [Dasatinib] (top concentration 1000 nM) — lower, -0.2
- N[C@@H]1CCCN(c2c(/C=C3\SC(=O)NC3=O)cccc2-c2ccccc2)C1 [AZD1208] (top concentration 10000 nM) — higher, 8.5
- CC(C)C[C@H](NC(=O)CNC(=O)c1cc(Cl)ccc1Cl)B(O)O [Ixazomib] (top concentration 1000 nM) — higher, 8.46
- Cn1cnc2c(F)c(Nc3ccc(Br)cc3F)c(C(=O)NOCCO)cc21 [Binimetinib] (top concentration 1000 nM) — higher, 3.08
- COc1cc(Nc2ncc(F)c(Nc3ccc4c(n3)N(COP(=O)(O)O)C(=O)C(C)(C)O4)n2)cc(OC)c1OC [Fostamatinib] (top concentration 2500 nM) — higher, 8.06
- COc1cc2c(Oc3ccc(NC(=O)C4(C(=O)Nc5ccc(F)cc5)CC4)cc3F)ccnc2cc1OCCCN1CCOCC1 [Foretinib] (top concentration 1000 nM) — higher, 10.8
- Sc1ncnc2nc[nH]c12 [Mercaptopurine] (top concentration 10000 nM) — higher, 14.9
- COCCNCc1ccc(-c2cc3nccc(Oc4ccc(NC(=S)NC(=O)Cc5ccc(F)cc5)cc4F)c3s2)nc1 [Glesatinib] (top concentration 2500 nM) — higher, 9.04
- Cn1nccc1Nc1nccc(-c2ccn([C@H](CO)c3ccc(Cl)c(F)c3)c(=O)c2)n1 [Ravoxertinib] (top concentration 10000 nM) — higher, 3.6
- CC1=NN(c2ccc(C(=O)O)cc2)C(=O)C1=Cc1ccc(-c2cc(C)c(C)cc2[N+](=O)[O-])o1 [C646] (top concentration 25000 nM) — higher, 5.04
- CC(C)c1cc(C(=O)N2Cc3ccc(CN4CCN(C)CC4)cc3C2)c(O)cc1O [Onalespib] (top concentration 2500 nM) — lower, 1.62
- CCN1C(=O)CNc2ncc(-c3ccc(-c4nc[nH]n4)nc3C)nc21 [CC-115] (top concentration 10000 nM) — higher, 4.34
- COc1cc(N2CCC(N3CCN(C)CC3)CC2)ccc1Nc1ncc(Cl)c(Nc2ccccc2P(C)(C)=O)n1 [Brigatinib] (top concentration 1000 nM) — higher, 4.16
- CN1CCN(c2nc(C3=C(c4c[nH]c5ccccc45)C(=O)NC3=O)c3ccccc3n2)CC1 [Sotrastaurin] (top concentration 10000 nM) — higher, 5
- CCN(CC)Cc1ccc2cc(COC(=O)Nc3ccc(C(=O)NO)cc3)ccc2c1 [Givinostat] (top concentration 1000 nM) — higher, 3.9
- CNC(=O)c1cc(Oc2ccc(NC(=O)Nc3ccc(Cl)c(C(F)(F)F)c3)cc2)ccn1 [Sorafenib] (top concentration 1000 nM) — higher, 5.5
- COc1ccc(S(=O)(=O)Nc2cccnc2Nc2ccc(O)cc2)cc1 [ABT-751] (top concentration 10000 nM) — higher, 13.3

System: ALL-SIL
Test: as above
Settings: 72 h

Point of comparison: N[C@@H]1CCCN(c2c(/C=C3\SC(=O)NC3=O)cccc2-c2ccccc2)C1 [AZD1208] (top concentration 10000 nM), “selective drug sensitivity score” value 0.7. Against it:
- Cc1cc(Nc2ncc(Cl)c(Nc3ccccc3S(=O)(=O)C(C)C)n2)c(OC(C)C)cc1C1CCNCC1 [Ceritinib] (top concentration 2500 nM) — higher, 4.36
- Cc1nc(Nc2ncc(C(=O)Nc3c(C)cccc3Cl)s2)cc(N2CCN(CCO)CC2)n1 [Dasatinib] (top concentration 1000 nM) — higher, 41.4
- CC(C)C[C@H](NC(=O)CNC(=O)c1cc(Cl)ccc1Cl)B(O)O [Ixazomib] (top concentration 1000 nM) — higher, 7.56
- C=CC(=O)N1CCC[C@@H](n2nc(-c3ccc(Oc4ccccc4)cc3)c3c(N)ncnc32)C1 [Ibrutinib] (top concentration 1000 nM) — lower, 0
- Cn1cnc2c(F)c(Nc3ccc(Br)cc3F)c(C(=O)NOCCO)cc21 [Binimetinib] (top concentration 1000 nM) — lower, -1.02
- COc1cc(Nc2ncc(F)c(Nc3ccc4c(n3)N(COP(=O)(O)O)C(=O)C(C)(C)O4)n2)cc(OC)c1OC [Fostamatinib] (top concentration 2500 nM) — higher, 1.96
- COc1cc2c(Oc3ccc(NC(=O)C4(C(=O)Nc5ccc(F)cc5)CC4)cc3F)ccnc2cc1OCCCN1CCOCC1 [Foretinib] (top concentration 1000 nM) — higher, 13.6
- Sc1ncnc2nc[nH]c12 [Mercaptopurine] (top concentration 10000 nM) — higher, 14.8
